Results taken from publication PMC4032190 (Journal of medicinal chemistry, 2014).
Values belong to the compound of their own block, whether it stands above or below them.

Experiments:
XBP-1s expression [1] = experiment: Inhibition of XBP-1s expression in Jeko cells; format: cell-based, human; conditions: 20 µM, 24 h, immunoblot
XBP-1s expression [2] = experiment: Inhibition of XBP-1s expression in Mino cells; format: cell-based, human; conditions: 20 µM, 24 h, immunoblot
[3] = target: recombinant human IRE-1 (RNase activity) (Homo sapiens, UniProt O75460); experiment: In vitro IRE-1 RNase FRET-suppression assay; format: biochemical; conditions: up to 20 µM
recombinant human IRE-1 (RNase activity), sequence (O75460 547-977): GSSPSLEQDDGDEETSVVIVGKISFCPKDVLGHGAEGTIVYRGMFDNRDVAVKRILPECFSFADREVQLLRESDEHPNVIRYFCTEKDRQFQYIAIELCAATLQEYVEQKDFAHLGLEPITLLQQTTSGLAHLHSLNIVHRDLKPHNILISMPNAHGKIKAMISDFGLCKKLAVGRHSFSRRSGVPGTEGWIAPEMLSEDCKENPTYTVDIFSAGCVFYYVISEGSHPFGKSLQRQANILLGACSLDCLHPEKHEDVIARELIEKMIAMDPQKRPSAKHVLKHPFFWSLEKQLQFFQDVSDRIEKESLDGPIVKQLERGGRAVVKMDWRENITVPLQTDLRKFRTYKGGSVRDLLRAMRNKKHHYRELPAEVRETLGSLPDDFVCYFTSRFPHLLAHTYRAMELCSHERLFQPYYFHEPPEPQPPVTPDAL

Jeko cells = experiment: PARP cleavage; format: cell-based, human; conditions: 50 µM, 72 h, immunoblot
Mino cells = experiment: PARP cleavage; format: cell-based, human; conditions: 50 µM, 72 h, immunoblot
XBP-1s expression [4] = experiment: Inhibition of XBP-1s expression in LPS-stimulated wild-type mouse B cells; format: cell-based; conditions: immunoblot
[5] = Chemical stability in FRET-suppression assay buffer; conditions: rt, over 12 hours, LCMS

Compound: C=C(C)CN1CCc2c(c(=O)oc3c(C=O)c(O)ccc23)C1 [Compound 33, 8-Hydroxy-3-(2-methylallyl)-5-oxo-2,3,4,5-tetrahydro-1H-chromeno[3,4-c]pyridine-7-carbaldehyde]
suppression of XBP-1s expression (XBP-1s expression [1]): significant activity | suppression of XBP-1s expression (XBP-1s expression [2]): significant activity

IRE-1 RNase inhibition (in words) [3]: complete loss of potency below 20 µM
Compound: C=CCOC(=O)N1CCc2c(c(=O)oc3c(C=O)c(OCc4ccccc4)ccc23)C1 [Compound 27, Allyl 7-formyl-8-benzyloxy-5-oxo-4,5-dihydro-1H-chromeno[3,4-c]pyridine-3(2H)-carboxylate]

Compound: CN1CCc2c(c(=O)oc3c(C=O)c(O)ccc23)C1 [Compound 30, 8-Hydroxy-3-methyl-5-oxo-2,3,4,5-tetrahydro-1H-chromeno[3,4-c]pyridine-7-carbaldehyde]
PARP cleavage (Jeko cells): more strongly than either 21b or 5 | PARP cleavage (Mino cells): more strongly than either 21b or 5

Compound: Cc1cc(=O)oc2c(C=O)c(O)ccc12 [Compound 5]
inhibition of XBP-1s expression (XBP-1s expression [4]; 20 µM, 24 h): strong inhibition

Compound: O=Cc1c(O)ccc2ccccc12 [Compound 2]
inhibition of XBP-1s expression (XBP-1s expression [4]; 50 µM): strong inhibition

decomposition of the 1,3-dioxane moiety [5]: no significant decomposition
Compound: C=CCOC(=O)N1CCc2c(c(=O)oc3c(C4OCCCO4)c(O)ccc23)C1 [Compound 24, Allyl 7-(1,3-dioxan-2-yl)-8-hydroxy-5-oxo-4,5-dihydro-1H-chromeno[3,4-c]pyridine-3(2H)-carboxylate]

IRE-1 RNase inhibition (in words) [3]: no appreciable inhibition
Compound: NS(=O)(=O)c1cccs1 [Compound 8, reference compound]
